In patent US8901118B2, “Compounds and methods for kinase modulation, and indications therefor” (Plexxikon Inc., priority 2010, dated 2014):
pIC50: −log10 of the molar value.

Key:
[1] = test system: MV-4-11 cells; assay: MV-4-11 (leukemia) cell proliferation assay (ATPlite); format: cell-based; conditions: Homo sapiens, MV4-11, read-out: Inhibition of Cell Proliferation IC50, MV-4-11
Protocol: Compounds are assessed in a variety of cell based assays. For example BaF3 cells engineered with any of BCR-FMS, BCR-KIT, BCR-FLT3, BCR-NTRK1, BCR-NTRK2, and BCR-NTRK3, are used in cell proliferation assays to assess inhibitory activity of Fms, Kit, Flt-3, TrkA, TrkB, and TrkC, respectively. An MV-4-11 (leukemia) cell proliferation assay is used to assess inhibitory activity in Flt-3, and SKNSH (human neuroblastoma) cell proliferation assay is used to assess efficacy of Fms/Trk inhibitors. Additional cells may be assayed similarly to assess the efficacy of Fms/Trk inhibitors, such as MiaPaCa (human pancreatic cancer) and Capan-1 (human pancreatic carcinoma) cells. Reagent and assay conditions are as follows: • BaF3 cells: • Maintained in RPMI containing 10% FBS, 1% PenStrep, 1% NEAA, and 1% L-Glutamine, supplemented with 1 mg/mL G418 and 5% WEHI-CM (or recombinant murine IL-3). • Confluent cells are split 1:50 to 1:100 every 3-4 days. • MV-4-11 cells: • Maintained in Iscove's Modified Dulbecco's Medium containing 10% FBS. • Confluent cells are split 1:4 every 3-4 days. • SKNSH cells: RPMI containing 10% FBS. On day 1, cells are counted, then centrifuged in a conical tube for 5 minutes at 1000 rpm. The supernatant is removed and cells are re-suspended as follows: • BaF3: resuspend in growth media +1 mg/mL G418 (without WEHFIL-3) to 2×10^5 cells/mL. • MV-4-11: resuspend in growth media to 5×10^5 cells/mL. • SKNSH: resuspend in growth media to 2×10^4 cells/mL. The cells are plated (50 μL, 150 μL for SKNSH cells) in each well of a 96-well dish (Corning 3610) and incubated at 37° C. in 5% CO2 overnight, cells plated to a final concentration of cells as follows: • BaF3: 10,000 cells per well. • MV-4-11: 25,000 cells per well. • SKNSH: 3,000 cells per well. On day 2, compound at a maximum concentration of 5 mM is serially diluted 1:3 for a total of 8 point titration with DMSO as a control. A 1 μL aliquot of each dilution point is added to 249 μL growth media and 50 μL is added to a well containing cells, providing 10 μM compound for the maximum concentration point. The cells are incubated for 3 days at 37° C. in 5% CO2. For SKNSH cells, a 0.75 μL aliquot of appropriate dilution in DMSO is added to 150 μL of cells. On day 5, ATPlite 1 step Luminescence Assay System (Perkin Elmer #6016739) is brought to room temperature along with the cell cultures. ATPlite is added to each well as follows: • BaF3: 25 μL per well. • MV-4-11: 40 μL per well. • SKNSH: 20 μL per well. The cells are incubated at room temperature for 10 minutes, then luminescence is read on Safire reader. The measured luminescence correlates directly with cell number, such that the reading as a function of compound concentration is used to determine the IC50 value.
It is understood that the results of these assays may vary as assay conditions are varied. Inhibition levels determined under the conditions described herein represent a relative activity for the compounds tested under the specific conditions employed. The cell based assays are likely to show variability due to the complexity of the system and the sensitivity thereof to any changes in the assay conditions. […] Results for compounds that are tested and show substantially no inhibition below the highest tested concentration are represented as “-” in the tables below. In some instances, the compounds were not tested in all of the assays, or assay results were not valid, as indicated by NA in the tables below.

[2] = target: CYP3A4(BQ) (Homo sapiens, UniProt P08684); assay: CYP3A4(BQ) inhibition; format: in vitro ADME; conditions: CYP3A4, substrate BQ; read-out: Cyp IC50 3A4(BQ)
Summary of the method: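 After 30 min incubation at 37° C, plates were read on a Tecan Safire 2 at 409 ex/460 em, and IC50 values came from signal plotted against compound concentration. Enzyme and substrate were sourced from BD Biosciences. The cofactor mix held 1.3% NADPH Regeneration system Solution A, 1.04% Solution B, 5% acetonitrile and 0.05% DMSO.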

CYP3A4(BQ), sequence (P08684 whole entry): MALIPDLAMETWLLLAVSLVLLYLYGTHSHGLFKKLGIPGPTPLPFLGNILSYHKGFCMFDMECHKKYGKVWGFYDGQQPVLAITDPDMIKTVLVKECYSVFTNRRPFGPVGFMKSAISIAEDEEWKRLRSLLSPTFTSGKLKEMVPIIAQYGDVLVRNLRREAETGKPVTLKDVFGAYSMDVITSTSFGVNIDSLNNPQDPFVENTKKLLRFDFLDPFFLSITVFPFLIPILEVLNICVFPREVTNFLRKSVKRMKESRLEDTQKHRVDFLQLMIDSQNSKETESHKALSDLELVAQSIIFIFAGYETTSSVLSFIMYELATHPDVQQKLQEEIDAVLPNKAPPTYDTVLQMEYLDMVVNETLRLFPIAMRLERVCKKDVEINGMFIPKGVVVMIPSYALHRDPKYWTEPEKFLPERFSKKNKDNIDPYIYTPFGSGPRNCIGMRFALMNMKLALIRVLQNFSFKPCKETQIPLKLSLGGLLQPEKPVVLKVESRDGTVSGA

SMILES	pIC50 [1]	pIC50 [2]
CCOc1ncnc2[nH]cc(Cc3ccc(Nc4ccc(OC)nc4)nc3F)c12 [Compound P-4018, [5-(4-Ethoxy-7H-pyrrolo[2,3-d]pyrimidin-5-ylmethyl)-6-fluoro-pyridin-2-yl]-(6-methoxy-pyridin-3-yl)-amine]	> 6.00	< 5.00
CCc1ccc(Nc2ccc(Cc3c[nH]c4ncnc(C)c34)c(F)n2)cn1 [Compound P-4009, (6-Ethyl-pyridin-3-yl)-[6-fluoro-5-(4-methyl-7H-pyrrolo[2,3-d]pyrimidin-5-ylmethyl)-pyridin-2-yl]-amine]	> 7.00	< 5.00
CCc1ccc(Nc2ccc(Cc3c[nH]c4ncnc(OCCOC)c34)c(F)n2)cn1 [Compound P-4016, (6-Ethyl-pyridin-3-yl)-{6-fluoro-5-[4-(2-methoxy-ethoxy)-7H-pyrrolo[2,3-d]pyrimidin-5-ylmethyl]-pyridin-2-yl}-amine]	> 7.00	< 5.00
CCn1cc(Nc2ccc(Cc3c[nH]c4ncnc(OCCOC)c34)c(F)n2)cn1 [Compound P-4014, (1-Ethyl-1H-pyrazol-4-yl)-{6-fluoro-5-[4-(2-methoxy-ethoxy)-7H-pyrrolo[2,3-d]pyrimidin-5-ylmethyl]-pyridin-2-yl}-amine]	> 6.00	< 5.00
